Assay results taken from PubChem BioAssay (NCI).
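Step 1: Grow cells in 96-well plates. Step 2: Expose to compound for 48 hours at 5 concentrations. Step 3: Interpolate endpoints linearly; if unreached, use highest concentration. GI50 is the concentration that inhibits growth by half. TGI: concentration producing complete growth inhibition.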

Tests used:
Assay in all cases: NCI-60 cell line screen, 48 h
[1] = system: HOP-62 NSCLC
[2] = system: ACHN renal
[3] = system: 786-0 renal
[4] = system: LOX IMVI melanoma
[5] = system: T-47D breast
[6] = system: HS 578T breast
[7] = system: MALME-3M melanoma
[8] = system: A549 NSCLC
[9] = system: HCC-2998 colon
[10] = system: M14 melanoma
[11] = system: OVCAR-4 ovarian
[12] = system: MCF7 breast
[13] = system: SNB-75 CNS
[14] = system: MDA-MB-231 breast
[15] = system: NCI-H23 lung
[16] = system: OVCAR-5 ovarian
[17] = system: HCT-15 colon
[18] = system: HCT-116 colon
[19] = system: CCRF-CEM leukemia
[20] = system: SNB-19 CNS
[21] = system: OVCAR-8 ovarian
[22] = system: NCI-H460 lung
[23] = system: UACC-257 melanoma
[24] = system: NCI-H226 lung
[25] = system: BT-549 breast
[26] = system: SK-MEL-2 melanoma
[27] = system: SF-268 CNS
[28] = system: HL-60(TB) leukemia
[29] = system: IGROV1 ovarian
[30] = system: SR leukemia
[31] = system: UACC-62 melanoma
[32] = system: U251 CNS
[33] = system: A498 renal
[34] = system: SF-295 CNS
[35] = system: SF-539 CNS
[36] = system: RPMI-8226 leukemia
[37] = system: DU-145 prostate
[38] = system: SN12C renal
[39] = system: RXF 393 renal
[40] = system: CAKI-1 renal
[41] = system: NCI/ADR-RES ovarian
[42] = system: KM12 colon
[43] = system: MOLT-4 leukemia
[44] = system: K-562 leukemia
[45] = system: SK-OV-3 ovarian
[46] = system: SW-620 colon
[47] = system: MDA-MB-435
[48] = system: OVCAR-3 ovarian
[49] = system: SK-MEL-28 melanoma
[50] = system: UO-31 renal
[51] = system: NCI-H522 lung
[52] = system: HT29 colon
[53] = system: SK-MEL-5 melanoma
[54] = system: TK-10 renal
[55] = system: COLO 205 colon
[56] = system: PC-3 prostate

COc1cc(F)c(F)cc1C(=O)c1cnc(NC2CCN(S(C)(=O)=O)CC2)nc1N
GI50 [1]: 6.17 µM | TGI [1]: > 22.2 µM | GI50 [2]: 3.19 µM | TGI [2]: > 23.6 µM | GI50 [3]: 5.93 µM | TGI [3]: > 25 µM | GI50 [4]: 3.16 µM | TGI [4]: > 20.7 µM | GI50 [5]: 4.58 µM | TGI [5]: 23.8 µM | GI50 [6]: 4.71 µM | TGI [6]: > 21.8 µM | GI50 [7]: 2.78 µM | TGI [7]: 24.2 µM | GI50 [8]: 3.18 µM | TGI [8]: > 25 µM | GI50 [9]: 4.32 µM | TGI [9]: > 25 µM | GI50 [10]: 4.73 µM | TGI [10]: > 25 µM | GI50 [11]: 6.4 µM | TGI [11]: > 25 µM | GI50 [12]: 0.76 µM | TGI [12]: > 25 µM | GI50 [13]: 3.83 µM | TGI [13]: 10.9 µM | GI50 [14]: 3.04 µM | TGI [14]: > 25 µM | GI50 [15]: 2.62 µM | TGI [15]: > 18 µM | GI50 [16]: 2.62 µM | TGI [16]: > 23.1 µM | GI50 [17]: 3.46 µM | TGI [17]: > 25 µM | GI50 [18]: 2.16 µM | TGI [18]: > 25 µM | GI50 [19]: 4.86 µM | TGI [19]: 18.8 µM | GI50 [20]: 2.32 µM | TGI [20]: > 25 µM | GI50 [21]: 4.43 µM | TGI [21]: > 25 µM | GI50 [22]: 1.16 µM | TGI [22]: 24.3 µM | GI50 [23]: 3.56 µM | TGI [23]: > 22.7 µM | GI50 [24]: 3.1 µM | TGI [24]: 22 µM | GI50 [25]: 4.29 µM | TGI [25]: 18.6 µM | GI50 [26]: 3.86 µM | TGI [26]: 12.6 µM | GI50 [27]: 5.65 µM | TGI [27]: 20 µM | GI50 [28]: 2.01 µM | TGI [28]: 10 µM | GI50 [29]: 5.11 µM | TGI [29]: 24.5 µM | GI50 [30]: 1.23 µM | TGI [30]: 10.2 µM | GI50 [31]: 3.13 µM | TGI [31]: 7.63 µM | GI50 [32]: 2.42 µM | TGI [32]: 24.8 µM | GI50 [33]: 4.62 µM | TGI [33]: 11.9 µM | GI50 [34]: 2.9 µM | TGI [34]: 23.7 µM | GI50 [35]: 3.85 µM | TGI [35]: 11.1 µM | GI50 [36]: 3.66 µM | TGI [36]: > 16.2 µM | GI50 [37]: 5.66 µM | TGI [37]: > 21.6 µM | GI50 [38]: 4.49 µM | TGI [38]: > 25 µM | GI50 [39]: 3.01 µM | TGI [39]: 7.18 µM | GI50 [40]: 3.79 µM | TGI [40]: > 25 µM | GI50 [41]: 6.48 µM | TGI [41]: > 25 µM | GI50 [42]: 3.12 µM | TGI [42]: > 22.4 µM | GI50 [43]: 3.4 µM | TGI [43]: 20.4 µM | GI50 [44]: 7.29 µM | TGI [44]: > 25 µM | GI50 [45]: 10 µM | TGI [45]: > 25 µM | GI50 [46]: 1.27 µM | TGI [46]: 24.8 µM | GI50 [47]: 3.55 µM | TGI [47]: > 25 µM | GI50 [48]: 4.48 µM | TGI [48]: 15.7 µM | GI50 [49]: 4.08 µM | TGI [49]: > 25 µM | GI50 [50]: 4.75 µM | TGI [50]: > 19.8 µM | GI50 [51]: 4.67 µM | TGI [51]: > 25 µM | GI50 [52]: 3.7 µM | TGI [52]: > 25 µM | GI50 [53]: 2.07 µM | TGI [53]: > 14.4 µM | GI50 [54]: 2.92 µM | TGI [54]: 19.3 µM | GI50 [55]: 2.42 µM | TGI [55]: 6.14 µM | GI50 [56]: 2 µM | TGI [56]: > 25 µM
